The target of one assay is T1, HLA A*0201 (Homo sapiens, UniProt P04439, D140Y/D185E/D98H/E176V/E277Q/G131W/G231S/I119V/I121R/I166T/I218V/L300P/L318F/N151K/N90K/P208A/P217A/Q86G/Q94H/R138H/R169H/T345S).
T1 construct: Pure Protein, LLC (ran the assay)
Nature of the assay: biochemical. It counts as binding.

The target in the next assay is T2, HLA A*2402 (Homo sapiens, UniProt P04439, D101N/D140Y/D185E/E176V/E190D/F33S/G103R/G107R/I119L/I121M/I306V/K335N/L105A/L180Q/L300P/N151K/N90K/Q86E/Q94H/R106L/R138H/R89G/T104I/T345S/V100E/W191G/Y123F).
T2 construct: Pure Protein, LLC (ran the assay)
Kind of assay: In vitro class I HLA binding competition assay (fluorescence polarization). To be noted: allele A2402; cell-free competition with fluorescently labeled control peptide, fluorescence polarization at 72 hours. The procedure:
The cell-free class I HLA binding assay in use at Pure Protein, LLC allows for in vitro quantification of peptide-HLA binding affinity in a competition format. In this assay, a fluorescently labeled, high binding, control peptide is loaded onto 384-well ½-area plates along with unlabeled experimental peptides. To remove endogenous peptides and render the HLA A and B molecules receptive to binding, HLA is heated at 53°C for 15 minutes and immediately added to the assay. The mixture is then allowed to stand for three days. […] Binding of experimental peptides is expressed as the percent inhibition of the labeled control peptide (experimental fluorescence / control fluorescence, multiplied by 100). The percent inhibition values for each experimental peptide (across a range of molar concentrations) are used to calculate the concentration which inhibits 50% of the labeled control peptide’s specific binding. This value is referred to as the peptide’s IC50.
On the technique in general: In fluorescence polarisation assays a small probe gives low polarisation when free and higher when bound to something large.

The target in the next assay is T3, HLA B*0702 (Homo sapiens, UniProt P01889).
T3 construct: Pure Protein, LLC (ran the assay)
Kind of assay: biochemical. It counts as binding.

Another assay has as its target HLA B*4402 (Homo sapiens, UniProt P01889, A223V/A65T/A93T/A95T/D201E/D98Y/E176V/E187L/E204Q/E69K/G107R/H137Y/K202T/L105A/L119I/N104T/N87E/Q56L/Q94N/R106L/R155S/R180D/S101N/S121R/S35A/S48T/T118I/V36M/W191S/Y140D/Y91S). Kind of assay: In vitro class I HLA binding competition assay (fluorescence polarization). To be noted: allele B4402; cell-free competition with fluorescently labeled control peptide, fluorescence polarization at 72 hours. The procedure: The cell-free class I HLA binding assay in use at Pure Protein, LLC allows for in vitro quantification of peptide-HLA binding affinity in a competition format. In this assay, a fluorescently labeled, high binding, control peptide is loaded onto 384-well ½-area plates along with unlabeled experimental peptides. To remove endogenous peptides and render the HLA A and B molecules receptive to binding, HLA is heated at 53°C for 15 minutes and immediately added to the assay. The mixture is then allowed to stand for three days. Once the mixture has reached steady equilibrium (at 72 hours), displacement of the high binding control peptide is measured through Fluorescence Polarization. Binding of experimental peptides is expressed as the percent inhibition of the labeled control peptide (experimental fluorescence / control fluorescence, multiplied by 100). The percent inhibition values for each experimental peptide (across a range of molar concentrations) are used to calculate the concentration which inhibits 50% of the labeled control peptide’s specific binding. This value is referred to as the peptide’s IC50.

Peptide text beside a SMILES is read from it.

A word on the IC50: it is the point on the concentration scale where inhibition reaches its midpoint. High values mean lower potency, low ones higher potency. Consider `CC[C@H](C)[C@H](NC(=O)[C@H](CCCCN)NC(=O)[C@H](CCCCN)NC(=O)[C@H](CC(C)C)NC(=O)[C@@H](N)Cc1ccc(O)cc1)C(=O)N[C@@H](CCC(N)=O)C(=O)N[C@@H](CC(N)=O)C(=O)N[C@@H](CO)C(=O)N[C@@H](CC(C)C)C(=O)O` [Cluster 319_ICS2] (H-YLKKIQNSL-OH), for which the IC50 against HLA A*0201 was 2.18 µM; on HLA A*2402 it was 11.2 µM; on HLA B*0702, 9.2 µM.

On to `CC[C@H](C)[C@H](N)C(=O)N[C@@H](CCC(N)=O)C(=O)N[C@@H](CC(N)=O)C(=O)N[C@@H](CO)C(=O)N[C@@H](CC(C)C)C(=O)N[C@@H](CO)C(=O)N[C@H](C(=O)N[C@@H](CCC(=O)O)C(=O)N[C@@H](Cc1c[nH]c2ccccc12)C(=O)O)[C@@H](C)O` [Cluster 323_3D7] (H-IQNSLSTEW-OH), for which the IC50 was found to be 21.3 µM on HLA A*2402 and 136 µM at HLA B*4402.

These data come from paper PMC8217813, “Bridging Computational Vaccinology and Vaccine Development Through Systematic Identification, Characterization, and Downselection of Conserved and Variable Circumsporozoite Protein CD4 T Cell Epitopes From Diverse Plasmodium falciparum Strains” (Frontiers in Immunology, 2021).
